In patent EP1599197B1, “THE USE OF ANTIMUSCARINIC DRUGS” (FAPESP-Fundacao de Amparo a Pesquisa do Estado de SP, priority 2003, dated 2004):

Legend:
[1] = tested on: Wistar, adult, male, rats; assay: pilocarpine model of epilepsy: video monitoring of spontaneous epileptic seizures after status epilepticus; type: in vivo
Excerpt: The current invention was based on an experimental model of epilepsy in which in rats the induction of a brain lesion is accomplished through the administration of pilocarpine, a cholinergic agonist. According to the original description of this model, approximately 20-30 days after pilocarpine injection in either rats or mice, there is the onset of spontaneous recurrent epileptic seizures (Turski WA, Cavalheiro EA, Schwarz M, Czuczwar SJ, Kleinrok Z and Turski L. Limbic seizures produced by pilocarpine in rats: behavioural, electroencephalographic and neuropathological study. Behavioral Brain Research, 9:315-335, 1983; Mello LEAM, Cavalheiro EA, Babb TL, Kupfer WR, Pretorius JK, Tan AM and Finch. DM. Circuit mechanisms of seizures in the pilocarpine model of chronic epilepsy: cell loss and mossy fiber sprouting. Epilepsia 34:985-995, 1993). Due to its special features the pilocarpine model is currently one of the 3 most widely used experimental models in the study of epilepsy.
(§1) Biperiden, together with atropine, is a classic cholinergic antagonist and is known to block muscarinic receptors. These drugs are known by their abilities in blocking the cholinergic transmission which is otherwise mediated through muscarinic receptors. For our experiments we used Wistar, adult, male, rats which were maintained under controled conditions of temperature, light/dark cylces and kept in groups of up to 6 animals in polypropilene boxes with free access to tap water and rat chow pellets. Rats were subject to the intraperitoneal administration of pilocarpine in a dose of 320 mg/Kg for the induction of status epilepticus.
As expected, the systemic administration of pilocarpine lead to a sequence of behavioral alterations such as akinesia, body tremor and/or myoclonic jerks of the head and oro-facial stereotyped movements accompained by profuse salivation. Status epilepticus, a condition of uninterrupt epileptic seizure, developed on average 19 ± 5 min after the injetion of pilocarpine. Three hours after the onset of status epilepticus the animals in the experimental group (n=10) were intraperitoneally injected with the first initial dose of biperiden (8 mg/kg). This dose represents the concentration needed to provoke memory impairments in rodents (Roldan G, Bolanos-Badillo E, Gonzales-Sanches H, Quirarte GL and Prado-Alcala RA JW. Selective M1 muscarinic receptor antagonists disrupt memory consolidation of inhibitory avoidance in rats. Neurosci. Lett., 230:93-6, 1997).
For the animals in the control group (n=6), […] after the onset of status epileticus, administration of sterile saline solution (0.9% NaCl), rather than biperiden, was started with a similar protocol.
In the pilocarpine model of epilepsy, a few weeks after the administration of pilocarpine and the induction of status epilepticus, the animals develop spontaneous epileptic seizures which reccur for as long as the animal are allowed to live. […]
Approximately 15 to 20 days after the induction of status epilepticus, the reported duration of the latent period for the onset of spontaneous seizures, monitoring of the behavioral seizures with a videocamera for approximately 12 hours/week was initiated. […] Animals were video monitored for approximately 120 days after the induction of status epilepticus. The recorded video tapes were routinelly assessed in a 29 inches wide television screen and the seizures observed for each animal were recorded.

[2] = tested on: Wistar, adult, male, rats; assay: induction of status epilepticus by systemic pilocarpine; type: in vivo; details: pilocarpine 320 mg/Kg intraperitoneal, average
Excerpt: as §1
As expected, the systemic administration of pilocarpine lead to a sequence of behavioral alterations such as akinesia, body tremor and/or myoclonic jerks of the head and oro-facial stereotyped movements accompained by profuse salivation. Status epilepticus, a condition of uninterrupt epileptic seizure, developed on average 19 ± 5 min after the injetion of pilocarpine. Three hours after the onset of status epilepticus the animals in the experimental group (n=10) were intraperitoneally injected with the first initial dose of biperiden (8 mg/kg). […]

Row | SMILES | qualitative or quantitative nature of each individual seizure, biperiden-treated vs control group ([1]; comparison between the two groups) | onset of spontaneous recurrent seizures after prophylactic use following pilocarpine lesion ([1]; prophylactic use after pilocarpine lesion, vs animals not treated with biperiden) | mean frequency of spontaneous epileptic seizures, control group relative to experimental group (treated with biperiden) ([1]; ratio control / biperiden-treated group, Table 2) [times higher] | Spontaneous seizures/h ([1]; rats, pilocarpine 320 mg/Kg i.p., biperiden 8 mg/kg i.p. every 8 hours for 10 days, n=10, video monitored about 120 days, mean ± standard deviation, p < 0.02 vs control (0.0401 ± 0.0113)) [seizures/h] | Latency (weeks): length of the latent period for the onset of the first recorded spontaneous epileptic seizure ([1]; rats, pilocarpine 320 mg/Kg i.p., biperiden 8 mg/kg i.p. starting 3 h after onset of status epilepticus, every 8 hours for 10 days, n=10, mean ± standard deviation, p < 0.03 vs control (3.2 ± 1.1)) [weeks] | time to development of status epilepticus after the injection of pilocarpine [2] [min]
1 | OC(CCN1CCCCC1)(c1ccccc1)C1CC2C=CC1C2 (stereo not drawn) [biperiden] | no differences | significantly retarded or even supressed the onset of spontaneous recurrent seizures | 2 | 0.0202 ± 0.0047 | 6.0 ± 1.1 | –
2 | CC[C@@H]1C(=O)OC[C@@H]1Cc1cncn1C [pilocarpine] | – | – | – | – | – | 19 ± 5
